Reference: the NIST ThermoML archive (doi:10.1016/j.tca.2019.05.011)
± gives the expanded uncertainty stated by the source.

Key:
[1] = molar heat capacity at constant pressure; settings: 101.33 kPa, Liquid, Vacuum adiabatic calorimetry
[2] = Liquid, Closed cell (Static) method

CC(C)O [propan-2-ol]
Settings | molar heat capacity at constant pressure [J/K/mol] | vapor or sublimation pressure [kPa]
[1], 190 K | 111.12 ± 1.8 | –
[1], 200 K | 112.89 ± 1.8 | –
[1], 210 K | 115.01 ± 1.8 | –
[1], 220 K | 117.52 ± 1.8 | –
[1], 230 K | 120.46 ± 1.8 | –
[1], 240 K | 123.87 ± 1.8 | –
[1], 250 K | 127.81 ± 1.8 | –
[1], 260 K | 132.31 ± 1.8 | –
[1], 270 K | 137.41 ± 1.8 | –
[1], 280 K | 143.19 ± 1.8 | –
[1], 290 K | 149.68 ± 1.8 | –
[1], 300 K | 156.94 ± 1.8 | –
[1], 310 K | 165.02 ± 1.8 | –
[1], 320 K | 173.99 ± 1.8 | –
[1], 330 K | 183.9 ± 1.8 | –
[2], 297.8 K | – | 5.781 ± 0.12
[2], 303.1 K | – | 7.995 ± 0.17
[2], 315.8 K | – | 16.22 ± 0.34
[2], 332.1 K | – | 36.06 ± 0.74
[2], 344.7 K | – | 63.92 ± 1.3
